The record followed here is patent publication US20110124661A1, “OXAZOLOBENZIMIDAZOLE DERIVATIVES” (MERCK SHARP & DOHME CORP., priority 2008, published 2011).

For this test, the target named is T1, recombinant human mGluR2 (Homo sapiens, UniProt Q14416).
T1 construct: expressed in transfected cells
T1 sequence (Q14416 19-872): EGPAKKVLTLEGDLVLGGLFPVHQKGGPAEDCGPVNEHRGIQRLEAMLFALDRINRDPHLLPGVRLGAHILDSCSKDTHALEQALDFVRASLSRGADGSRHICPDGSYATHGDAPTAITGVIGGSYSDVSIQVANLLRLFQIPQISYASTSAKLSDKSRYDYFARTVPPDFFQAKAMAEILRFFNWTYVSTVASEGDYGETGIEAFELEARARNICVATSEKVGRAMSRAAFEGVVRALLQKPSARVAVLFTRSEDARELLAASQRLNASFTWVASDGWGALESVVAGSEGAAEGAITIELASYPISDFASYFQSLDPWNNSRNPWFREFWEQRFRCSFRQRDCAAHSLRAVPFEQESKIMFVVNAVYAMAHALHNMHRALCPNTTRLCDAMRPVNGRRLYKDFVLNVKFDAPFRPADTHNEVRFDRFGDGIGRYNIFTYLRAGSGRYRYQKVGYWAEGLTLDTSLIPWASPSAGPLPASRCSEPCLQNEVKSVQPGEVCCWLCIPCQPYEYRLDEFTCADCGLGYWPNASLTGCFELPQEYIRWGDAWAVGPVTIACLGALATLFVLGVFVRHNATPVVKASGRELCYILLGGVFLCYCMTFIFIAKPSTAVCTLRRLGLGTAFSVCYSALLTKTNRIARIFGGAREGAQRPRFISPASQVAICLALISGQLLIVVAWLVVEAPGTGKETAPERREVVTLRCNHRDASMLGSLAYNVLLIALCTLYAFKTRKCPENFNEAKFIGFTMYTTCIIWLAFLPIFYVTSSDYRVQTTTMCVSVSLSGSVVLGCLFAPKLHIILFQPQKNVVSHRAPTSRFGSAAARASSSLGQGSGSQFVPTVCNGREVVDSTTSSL
Description: FLIPR Ca2+ mobilization assay, potentiation of glutamate response. It counts as cell-based. The following applies: potentiation after EC20 glutamate (900 nM); CHO dhfr- cells expressing human mGluR2 and Gα16; read-out: Representative FLIPR EC50 Values. Here is the method: Inhibition constants are determined as follows. The compounds of the present invention may be tested in a […] (FLIPR) based assay. This assay is a common functional assay to monitor Ca^2+ mobilization in whole cells expressing recombinant receptor coupled with a promiscuous G-protein. CHO dhfr-cells stably expressing recombinant human mGluR2 and Gα16 loaded with Fluo-4 AM (Invitrogen, Carlsbad Calif.) are treated with dose responses of compounds and the Ca^2+ response is monitored on a FLIPR384 (Molecular Devices, Sunnydale Calif.) for agonist activity. The potentiation response is monitored after a subsequent addition of an EC20 concentration of glutamate (900 nM). The maximum calcium response at each concentration of compound for agonist or potentiation are plotted as dose responses and the curves are fitted with a four parameters logistic equation giving EC50 and Hill coefficient using the iterative non linear curve fitting software program.
For `CC(C)(C)c1ccc(OCC2Cn3c(nc4cccnc43)O2)cc1` (racemic) [Example 2-16, (RS)-2-[(4-tert-butylphenoxy)methyl]-2,3-dihydro[1,3]oxazolo[2′,3′:2,3]imidazo[4,5-b]pyridine], the 50% effective concentration (EC50) came to 261 nM.
The figure for `CC(C)(C)c1cc(OC[C@@H]2Cn3c(nc4cc(C#N)ccc43)O2)ccn1` [Example 1-12, (2S)-2-{[(2-tert-butylpyridin-4-yl)oxy]methyl}-2,3-dihydro[1,3]oxazolo[3,2-a]benzimidazole-7-carbonitrile] is 206 nM.
The figure for “(2S)-2-{[4-(2,2,2-trifluoro-1,1-dimethylethyl)phenoxy]methyl}-2,3-dihydro[1,3]oxazolo[3′,2′:1,2]imidazo[4,5-c]pyridine [Example 2-8]” is 21 nM.
Consider `CC(C)(C)c1ccc(OC[C@@H]2Cn3c(nc4cc(C#N)ccc43)O2)cn1` [Example 1-6, (2S)-2-{[(6-tert-butylpyridin-3-yl)oxy]methyl}-2,3-dihydro[1,3]oxazolo[3,2-a]benzimidazole-7-carbonitrile], for which the EC50 is 28 nM.
The figure for `FC(F)(F)c1ccc(OC[C@@H]2Cn3c(nc4ccccc43)O2)cn1` [Example 1-21, (2S)-2-({[6-(trifluoromethyl)yridine-3-yl]oxy}methyl)-2,3-dihydro[1,3]oxazolo[3,2-a]benzimidazole] is 507 nM; for `CC(C)(C)c1ccc(OC[C@@H]2Cn3c(nc4cc(F)c(F)cc43)O2)cn1` [Example 1-17, (2S)-2-{[(6-tert-bulylpyridin-3-yl)oxy]methyl}-6,7-difluoro-2,3-dihydro[1,3]oxazolo[3,2-a]benzimidazole] it is 58 nM.
